Assay results taken from PubChem BioAssay (NCI).
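Cultured in 96-well plates, cells were exposed to test compound for 48 hours across five concentrations. Abbreviation: GI50, concentration required for 50% inhibition of growth. TGI marks complete inhibition of growth.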

tested on: HOP-62 NSCLC; test: NCI tumour cell line growth inhibition, 48 h

Row | Structure (SMILES) | GI50 | TGI
1 | COc1ccc(/C=C2/N=C(c3ccccc3)N(c3c(C)n(C)n(-c4ccccc4)c3=O)C2=O)cc1OC | > 100 µM | > 100 µM
2 | C[C@@H]1CC[C@@H]2[C@@H]1[C@H](OC(=O)/C=C/c1ccccc1)[C@]1(C3CCCCC3)C[C@@H](OC(=O)CO)[C@@]2(C)O1 | 3.3 µM | 14 µM
3 | CCCN1C(=O)N(CCC)C2C1NC(=S)N2/N=C/C=C/c1ccccc1OC (stereo not drawn) | 0.713 µM | > 100 µM
4 | COc1cc2c(cc1OCCCNC(=O)c1cccc3c(=O)c4ccccc4[nH]c13)N=C[C@@H]1CCCN1C2=O | < 0.01 µM | 0.399 µM
5 | COc1cc2c(c(OC)c1OC)-c1ccc(SC)c(=O)cc1C(NC=O)CC2 (stereo not drawn) | – | > 90.8 µM
6 | CCSc1ncnc2c1ncn2C1OC(CO)C(O)C1O (stereo not drawn) | 1.47 µM | > 100 µM
7 | O=C(CSc1nc2ccccc2nc1-c1ccccc1)Nc1ccc(F)cc1 | 32.6 µM | > 100 µM
8 | CC[C@H]1[C@@H]2C=C[C@@H]3[C@H]4C/C=C\C(=O)NCCC[C@@H]5NC(=O)/C(=C(O)/C=C/[C@@H]4C[C@@H]3[C@H]2C[C@H]1C)C5=O | 1.4 µM | 3.03 µM
9 | O=C1Nc2ccccc2/C1=N\[O-].O=C1Nc2ccccc2/C1=N\[O-].[Cu+2] | > 100 µM | > 100 µM
10 | CN1C(=O)N(C)C2C1NN=c1s/c(=C\c3ccc(Cl)cc3Cl)c(=O)n12 (stereo not drawn) | 0.116 µM | 30.2 µM
11 | Cc1ccc(NC(=O)CC2CC2)cc1-c1ccc(C(=O)NCC2CC2)cc1 | > 25 µM | > 25 µM
12 | CCOC(=O)Nc1ccc(C)c(NC(=O)OCC)c1 | – | > 100 µM
13 | CNCC#Cc1c(F)ccc2c1/C(=C/c1[nH]ccc1OC)C(=O)N2 | 0.307 µM | 2.68 µM
14 | Cn1cc(C2=C(c3cn(CCCCO)c4ccccc34)C(=O)NC2=O)c2ccccc21 | 9.95 µM | > 25 µM

tested on: HCT-15 colon; test: NCI tumour cell line growth inhibition, 48 h

Row | Structure (SMILES) | GI50 | TGI
15 | COc1ccc(/C=C2/N=C(c3ccccc3)N(c3c(C)n(C)n(-c4ccccc4)c3=O)C2=O)cc1OC | > 100 µM | > 100 µM
16 | C[C@@H]1CC[C@@H]2[C@@H]1[C@H](OC(=O)/C=C/c1ccccc1)[C@]1(C3CCCCC3)C[C@@H](OC(=O)CO)[C@@]2(C)O1 | 2.44 µM | 7.93 µM
17 | CCCN1C(=O)N(CCC)C2C1NC(=S)N2/N=C/C=C/c1ccccc1OC (stereo not drawn) | 0.537 µM | > 100 µM
18 | COc1cc2c(cc1OCCCNC(=O)c1cccc3c(=O)c4ccccc4[nH]c13)N=C[C@@H]1CCCN1C2=O | 0.114 µM | > 100 µM
19 | COc1cc2c(c(OC)c1OC)-c1ccc(SC)c(=O)cc1C(NC=O)CC2 (stereo not drawn) | – | > 37.4 µM
20 | CCSc1ncnc2c1ncn2C1OC(CO)C(O)C1O (stereo not drawn) | 0.274 µM | > 100 µM
21 | O=C(CSc1nc2ccccc2nc1-c1ccccc1)Nc1ccc(F)cc1 | 48.7 µM | > 100 µM
22 | CC[C@H]1[C@@H]2C=C[C@@H]3[C@H]4C/C=C\C(=O)NCCC[C@@H]5NC(=O)/C(=C(O)/C=C/[C@@H]4C[C@@H]3[C@H]2C[C@H]1C)C5=O | 0.425 µM | 1.86 µM
23 | O=C1Nc2ccccc2/C1=N\[O-].O=C1Nc2ccccc2/C1=N\[O-].[Cu+2] | > 100 µM | > 100 µM
24 | CN1C(=O)N(C)C2C1NN=c1s/c(=C\c3ccc(Cl)cc3Cl)c(=O)n12 (stereo not drawn) | 0.0882 µM | > 100 µM
25 | Cc1ccc(NC(=O)CC2CC2)cc1-c1ccc(C(=O)NCC2CC2)cc1 | > 25 µM | > 25 µM
26 | CCOC(=O)Nc1ccc(C)c(NC(=O)OCC)c1 | – | > 100 µM
27 | CNCC#Cc1c(F)ccc2c1/C(=C/c1[nH]ccc1OC)C(=O)N2 | 0.0866 µM | 2.78 µM
28 | Cn1cc(C2=C(c3cn(CCCCO)c4ccccc34)C(=O)NC2=O)c2ccccc21 | 7.72 µM | > 25 µM

tested on: SW-620 colon; test: NCI tumour cell line growth inhibition, 48 h

Row | Structure (SMILES) | GI50 | TGI
29 | COc1ccc(/C=C2/N=C(c3ccccc3)N(c3c(C)n(C)n(-c4ccccc4)c3=O)C2=O)cc1OC | > 100 µM | > 100 µM
30 | C[C@@H]1CC[C@@H]2[C@@H]1[C@H](OC(=O)/C=C/c1ccccc1)[C@]1(C3CCCCC3)C[C@@H](OC(=O)CO)[C@@]2(C)O1 | 4.43 µM | 16.9 µM
31 | CCCN1C(=O)N(CCC)C2C1NC(=S)N2/N=C/C=C/c1ccccc1OC (stereo not drawn) | 0.416 µM | > 100 µM
32 | COc1cc2c(cc1OCCCNC(=O)c1cccc3c(=O)c4ccccc4[nH]c13)N=C[C@@H]1CCCN1C2=O | < 0.01 µM | 23.6 µM
33 | COc1cc2c(c(OC)c1OC)-c1ccc(SC)c(=O)cc1C(NC=O)CC2 (stereo not drawn) | – | > 100 µM
34 | CCSc1ncnc2c1ncn2C1OC(CO)C(O)C1O (stereo not drawn) | 0.3 µM | > 100 µM
35 | O=C(CSc1nc2ccccc2nc1-c1ccccc1)Nc1ccc(F)cc1 | 61 µM | > 100 µM
36 | CC[C@H]1[C@@H]2C=C[C@@H]3[C@H]4C/C=C\C(=O)NCCC[C@@H]5NC(=O)/C(=C(O)/C=C/[C@@H]4C[C@@H]3[C@H]2C[C@H]1C)C5=O | 2.46 µM | 7.59 µM
37 | O=C1Nc2ccccc2/C1=N\[O-].O=C1Nc2ccccc2/C1=N\[O-].[Cu+2] | > 100 µM | > 100 µM
38 | CN1C(=O)N(C)C2C1NN=c1s/c(=C\c3ccc(Cl)cc3Cl)c(=O)n12 (stereo not drawn) | 0.109 µM | > 100 µM
39 | Cc1ccc(NC(=O)CC2CC2)cc1-c1ccc(C(=O)NCC2CC2)cc1 | > 25 µM | > 25 µM
40 | CCOC(=O)Nc1ccc(C)c(NC(=O)OCC)c1 | – | > 100 µM
41 | CNCC#Cc1c(F)ccc2c1/C(=C/c1[nH]ccc1OC)C(=O)N2 | 0.136 µM | 2.38 µM
42 | Cn1cc(C2=C(c3cn(CCCCO)c4ccccc34)C(=O)NC2=O)c2ccccc21 | 9.26 µM | > 25 µM

tested on: U251 CNS; test: NCI tumour cell line growth inhibition, 48 h

Row | Structure (SMILES) | GI50 | TGI
43 | COc1ccc(/C=C2/N=C(c3ccccc3)N(c3c(C)n(C)n(-c4ccccc4)c3=O)C2=O)cc1OC | > 100 µM | > 100 µM
44 | C[C@@H]1CC[C@@H]2[C@@H]1[C@H](OC(=O)/C=C/c1ccccc1)[C@]1(C3CCCCC3)C[C@@H](OC(=O)CO)[C@@]2(C)O1 | 2.7 µM | 8.26 µM
45 | CCCN1C(=O)N(CCC)C2C1NC(=S)N2/N=C/C=C/c1ccccc1OC (stereo not drawn) | 0.588 µM | 27.4 µM
46 | COc1cc2c(cc1OCCCNC(=O)c1cccc3c(=O)c4ccccc4[nH]c13)N=C[C@@H]1CCCN1C2=O | < 0.01 µM | > 48.8 µM
47 | COc1cc2c(c(OC)c1OC)-c1ccc(SC)c(=O)cc1C(NC=O)CC2 (stereo not drawn) | – | 5.68 µM
48 | CCSc1ncnc2c1ncn2C1OC(CO)C(O)C1O (stereo not drawn) | 6.39 µM | > 100 µM
49 | O=C(CSc1nc2ccccc2nc1-c1ccccc1)Nc1ccc(F)cc1 | 38.8 µM | > 100 µM
50 | CC[C@H]1[C@@H]2C=C[C@@H]3[C@H]4C/C=C\C(=O)NCCC[C@@H]5NC(=O)/C(=C(O)/C=C/[C@@H]4C[C@@H]3[C@H]2C[C@H]1C)C5=O | 1.82 µM | 3.33 µM
51 | O=C1Nc2ccccc2/C1=N\[O-].O=C1Nc2ccccc2/C1=N\[O-].[Cu+2] | > 100 µM | > 100 µM
52 | CN1C(=O)N(C)C2C1NN=c1s/c(=C\c3ccc(Cl)cc3Cl)c(=O)n12 (stereo not drawn) | 0.192 µM | > 100 µM
53 | Cc1ccc(NC(=O)CC2CC2)cc1-c1ccc(C(=O)NCC2CC2)cc1 | > 25 µM | > 25 µM
54 | CCOC(=O)Nc1ccc(C)c(NC(=O)OCC)c1 | – | > 100 µM
55 | CNCC#Cc1c(F)ccc2c1/C(=C/c1[nH]ccc1OC)C(=O)N2 | 0.121 µM | 2.75 µM
56 | Cn1cc(C2=C(c3cn(CCCCO)c4ccccc34)C(=O)NC2=O)c2ccccc21 | 8.55 µM | > 25 µM

tested on: PC-3 prostate; test: NCI tumour cell line growth inhibition, 48 h

Row | Structure (SMILES) | GI50 | TGI
57 | COc1ccc(/C=C2/N=C(c3ccccc3)N(c3c(C)n(C)n(-c4ccccc4)c3=O)C2=O)cc1OC | > 100 µM | > 100 µM
58 | C[C@@H]1CC[C@@H]2[C@@H]1[C@H](OC(=O)/C=C/c1ccccc1)[C@]1(C3CCCCC3)C[C@@H](OC(=O)CO)[C@@]2(C)O1 | 3.04 µM | 11.3 µM
59 | CCCN1C(=O)N(CCC)C2C1NC(=S)N2/N=C/C=C/c1ccccc1OC (stereo not drawn) | 0.424 µM | > 100 µM
60 | COc1cc2c(cc1OCCCNC(=O)c1cccc3c(=O)c4ccccc4[nH]c13)N=C[C@@H]1CCCN1C2=O | < 0.011 µM | 0.949 µM
61 | COc1cc2c(c(OC)c1OC)-c1ccc(SC)c(=O)cc1C(NC=O)CC2 (stereo not drawn) | – | > 100 µM
62 | CCSc1ncnc2c1ncn2C1OC(CO)C(O)C1O (stereo not drawn) | 0.692 µM | > 71.3 µM
63 | O=C(CSc1nc2ccccc2nc1-c1ccccc1)Nc1ccc(F)cc1 | 38.9 µM | > 100 µM
64 | CC[C@H]1[C@@H]2C=C[C@@H]3[C@H]4C/C=C\C(=O)NCCC[C@@H]5NC(=O)/C(=C(O)/C=C/[C@@H]4C[C@@H]3[C@H]2C[C@H]1C)C5=O | 0.865 µM | 2.3 µM
65 | O=C1Nc2ccccc2/C1=N\[O-].O=C1Nc2ccccc2/C1=N\[O-].[Cu+2] | > 100 µM | > 100 µM
66 | CN1C(=O)N(C)C2C1NN=c1s/c(=C\c3ccc(Cl)cc3Cl)c(=O)n12 (stereo not drawn) | 0.167 µM | > 100 µM
67 | Cc1ccc(NC(=O)CC2CC2)cc1-c1ccc(C(=O)NCC2CC2)cc1 | > 25 µM | > 25 µM
68 | CCOC(=O)Nc1ccc(C)c(NC(=O)OCC)c1 | – | > 100 µM
69 | CNCC#Cc1c(F)ccc2c1/C(=C/c1[nH]ccc1OC)C(=O)N2 | 0.32 µM | 2.88 µM
